Data set [1] can be described thus: Caco-2 permeability assay (CacoReady kit). The format is in vitro ADME. To be noted: human. The gist of the method: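 Compounds are tested on pre-formed Caco-2 barriers supplied as a ready-to-use kit, following the kit protocol, and the Papp value is derived to estimate intestinal absorption.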
A general note: Passage across Caco-2 layers is used to estimate intestinal permeability.

Data set [2] is described as follows: Multiple-dosing PK study, tissue concentration in lung and liver. The format is in vivo. To be noted: mice, 200 mg/kg oral twice daily, after the eighth dose (four days). The procedure: Additionally, in a multiple-dosing PK study, II-3 was orally administered to 3 mice with 200 mg/kg doses (dose volume 10 mL/kg) twice daily (12 h intervals). After the animals were sacrificed, the liver and lung were removed. The homogenates of the respective tissues were analyzed by LC-MS to determine the concentration of the compound. The tissue concentration in lung and liver after the eighth dose (four days) was 6,800 and 10,400 ng/g, respectively, showing that the compound reaches the tissue at pharmacological active concentration.

Data set [3] in a line: Single-dose oral pharmacokinetic profile in mice. The format is in vivo. To be noted: male C57BL/6 mice, single oral dose 200 mg/kg. The procedure:
Presumed from promising Papp values (permeability coefficients, see below), the 5 inventors had proven the oral bioavailability of the inhibitors of the present application by the representative compounds II-3, II-15, and II-28. For this selected set of representative compounds, pharmacokinetic profiles were determined in male C57BL/6 mice (N=3, each). Briefly, the compounds were administered as single-dose soluble, oral formulation [20 mg/ml in PBS/(2—Hydroxypropyl)-β-cyclodextrin formulation] at 200 mg/kg. Plasma samples were taken at (0, 0.25, 0.5, 1, 2, 4, and 6 hours) and analyzed by LC-MS to determine the concentration of the representative compounds.

Where two headings read alike, the source gives them in different places.

For the molecule `CNC(=O)C(=O)CC[C@H](NC(=O)c1oc2ccccc2c1C)C(=O)Nc1cccn(CC(=O)NC2C3CC4CC(C3)CC2C4)c1=O` (stereo partly drawn) [II-3, (S)-N1-(1-(2-(2-adamantylamino)-2-oxoethyl)-2-oxo-1,2-dihydropyridin-3-yl)-N6-methyl-2-(3-methylbenzofuran-2-carboxamido)-5-oxohexanediamide], the Papp in data set [1] (Caco-2, Caco-2, read-out: Papp [cm/s] ×10^−6) was 8.4 ×10⁻⁶ cm/s. Moreover, the Papp in data set [1] (Caco-2, Caco-2 barrier, CacoReady kit, above 1×10^−6 cm/s classified as permeable) was 1 to 10 ×10⁻⁶ cm/s. In data set [2], the “tissue concentration in liver” value is 10,400 ng/g and the “tissue concentration in lung” value was 6,800 ng/g. Besides, the “Kel” value in data set [3] is 1.0 h⁻¹. In data set [3] (mouse, plasma), the CL/F (as a rule, the apparent clearance, not corrected for the fraction that reaches the circulation) is 277 mL/min/kg; the MRT (usually the average time that molecules of a dose stay in the body) was 60 min; the half-life – broadly, the time needed for the level to fall by half in the phase considered – was 42 min; the AUC(0-t) (as a rule, exposure summed from dosing to a finite time, without extrapolation to infinity) is 12000 ng·h/mL. Moreover, in data set [3] (mouse, plasma, read-out: Cmax), the Cmax was 21.6 µM. For the same molecule, in data set [3] (mouse, plasma, read-out: Cmax [ng/ml]), the Cmax stood at 13600 ng/mL.

Values taken from patent publication US20240383856A1 (Zedira GmbH, priority 2021, published 2024).
